Assay results: ChEMBL document CHEMBL5344409, “Discovery of pan-IAP degraders via a CRBN recruiting mechanism” (2023)
The source made the active and inactive calls. The calls are words filed in the database; no cut-off is given here.

Tests used:
[1] = target: T1, Protein cereblon/E3 ubiquitin-protein ligase XIAP (Homo sapiens) (UniProt P98170+Q96SW2); test: PROTAC activity at CRBN/XIAP in human MCF7 cells assessed as induction of XIAP degradation at 0.1 uM measured after 18 hrs by western blot analysis; type: cell-based
[2] = target: T2, Protein cereblon/Baculoviral IAP repeat-containing protein 3 (Homo sapiens) (UniProt Q13489+Q96SW2); test: PROTAC activity at CRBN/cIAP2 in human MCF7 cells assessed as induction of cIAP2 degradation at 0.1 uM measured after 18 hrs by western blot analysis; type: cell-based
[3] = target: T2, Protein cereblon/Baculoviral IAP repeat-containing protein 3 (Homo sapiens); test: PROTAC activity at CRBN/cIAP2 in human MCF7 cells assessed as induction of cIAP2 degradation at 1 uM measured after 6 hrs in presence of proteasome inhibitor, MG132 by western blot analysis; type: cell-based
MDA-MB-157 [4] = test: Inhibition of TNFalpha-induced cell migration in human MDA-MB-157 cells at 0.1 uM measured after 24 hrs in presence of TNFalpha by transwell assay; type: functional, cell-based
[5] = target: T1, Protein cereblon/E3 ubiquitin-protein ligase XIAP (Homo sapiens); test: Binding affinity to CRBN/XIAP in human HEK293T cells assessed as ternary complex formation at 1 uM measured after 6 hrs by immunoprecipitation analysis; type: cell-based
MDA-MB-157 [6] = test: Inhibition of TNFalpha-induced cell invasion in human MDA-MB-157 cells at 0.1 uM measured after 24 hrs in presence of TNFalpha by transwell assay; type: functional, cell-based
MCF7 [7] = test: Inhibition of TNFalpha-induced cytokine secretion in human MCF7 cells assessed as decrease in TNFalpha level at 0.1 uM measured after 4 hrs by ELISA; type: functional, cell-based
MDA-MB-231 = test: Inhibition of TNFalpha-induced cell migration in human MDA-MB-231 cells at 0.1 uM measured after 24 hrs in presence of TNFalpha by transwell assay; type: functional, cell-based
[8] = target: T3, Protein cereblon-IAP (Homo sapiens) (UniProt P98170+Q13489+Q13490+Q96SW2); test: PROTAC activity at CRBN/IAP in human MCF7 cells assessed as inhibition of TNFalpha-induced NFkappaB activation by measuring decrease in IKKalpha/beta phosphorylation at 0.1 uM pretreated for 2 hrs followed by stimulation with TNF-alpha for 3 mins by western blot analysis; type: cell-based; settings: time 123.0 min
[9] = target: Baculoviral IAP repeat-containing protein 2 (Homo sapiens) (UniProt Q13490); test: Induction of cIAP1 degradation in human MCF7 cells transfected with CRBN siRNA at 0.01 to 1 uM measured after 18 hrs by western blot analysis; type: cell-based; settings: dose 0.01-1 µM
[10] = target: T3, Protein cereblon-IAP (Homo sapiens); test: PROTAC activity at CRBN/IAP in human MCF7 cells assessed as inhibition of TNFalpha-induced NFkappaB activation by measuring decrease in IkBalpha phosphorylation at 0.1 uM pretreated for 2 hrs followed by stimulation with TNF-alpha for 3 mins by western blot analysis; type: cell-based; settings: time 123.0 min
[11] = target: E3 ubiquitin-protein ligase XIAP (Homo sapiens) (UniProt P98170); test: Induction of XIAP degradation in human MCF7 cells transfected with CRBN siRNA at 0.01 to 1 uM measured after 18 hrs by western blot analysis; type: cell-based; settings: dose 0.01-1 µM
[12] = target: T2, Protein cereblon/Baculoviral IAP repeat-containing protein 3 (Homo sapiens); test: PROTAC activity at CRBN/cIAP2 in human MCF7 cells assessed as induction of cIAP2 degradation at 0.1 to 10 uM measured after 18 hrs by western blot analysis; type: cell-based; settings: dose 0.1-10 µM
[13] = target: Baculoviral IAP repeat-containing protein 2 (Homo sapiens) (UniProt Q13490); test: Induction of cIAP1 degradation in human MCF7 cells at 0.1 uM measured within 1 hr by western blot analysis; type: cell-based
MCF7 [14] = test: Inhibition of TNFalpha-induced cytokine mRNA expression in human MCF7 cells assessed as decrease in TNF-alpha mRNA level by quantitative real-time PCR analysis; type: functional, cell-based
MCF7 [15] = test: Induction of apoptosis in human MCF7 cells assessed as increase in caspase 7 cleavage at 0.1 uM measured after 18 hrs by western blot analysis; type: functional, cell-based
[16] = target: Protein cereblon/Baculoviral IAP repeat-containing protein 2 (Homo sapiens) (UniProt Q13490+Q96SW2); test: Binding affinity to CRBN/cIAP1 in human HEK293T cells assessed as ternary complex formation at 1 uM measured after 6 hrs by immunoprecipitation analysis; type: cell-based
MCF7 [17] = test: Cytotoxicity against human MCF7 cells assessed as inhibition of cell growth measured after 72 hrs by CellTiter-Glo luminescent assay; type: functional
[18] = target: T2, Protein cereblon/Baculoviral IAP repeat-containing protein 3 (Homo sapiens); test: PROTAC activity at CRBN/cIAP2 in human MCF7 cells at 1 uM measured after 4 hrs by TMT-labeling based LC-MS/MS analysis; type: cell-based
MCF7 [19] = test: Inhibition of TNFalpha-induced cytokine secretion in human MCF7 cells assessed as decrease in IL-6 level at 0.1 uM measured after 4 hrs by ELISA; type: functional, cell-based
SK-OV-3 = test: Cytotoxicity against human SK-OV-3 cells assessed as inhibition of cell growth measured after 72 hrs by CellTiter-Glo luminescent assay; type: functional, cell-based
[20] = target: Baculoviral IAP repeat-containing protein 2 (Homo sapiens) (UniProt Q13490); test: Induction of cIAP1 degradation in human MCF7 cells assessed as protein abundance at 1 uM measured after 4 hrs by TMT-labeling based LC-MS/MS analysis; type: cell-based
MCF7 [21] = test: Induction of apoptosis in human MCF7 cells assessed as increase in PARP cleavage at 1 uM measured after 6 hrs in presence of TNF-alpha by western blot analysis; type: functional, cell-based
[22] = target: T2, Protein cereblon/Baculoviral IAP repeat-containing protein 3 (Homo sapiens); test: PROTAC activity at CRBN/cIAP2 in human MCF7 cells assessed as induction of cIAP2 degradation at 0.1 uM measured within 1 hr by western blot analysis; type: cell-based
MCF7 [23] = test: Inhibition of TNFalpha-induced cytokine mRNA expression in human MCF7 cells assessed as decrease in IL-6 mRNA level by quantitative real-time PCR analysis; type: functional, cell-based
[24] = target: T1, Protein cereblon/E3 ubiquitin-protein ligase XIAP (Homo sapiens); test: PROTAC activity at CRBN/XIAP in human MCF7 cells assessed as induction of XIAP degradation at 0.1 to 10 uM measured after 18 hrs by western blot analysis; type: cell-based; settings: dose 0.1-10 µM
[25] = target: T1, Protein cereblon/E3 ubiquitin-protein ligase XIAP (Homo sapiens); test: PROTAC activity at CRBN/XIAP in human MCF7 cells assessed as protein abundance at 1 uM measured after 4 hrs by TMT-labeling based LC-MS/MS analysis; type: cell-based
MCF7 [26] = test: Induction of apoptosis in human MCF7 cells assessed as increase in total apoptotic cells at 1 uM measured after 48 hrs by AnnexinV-FITC/PI staining based flow cytometry; type: functional
[27] = target: Baculoviral IAP repeat-containing protein 3 (Homo sapiens) (UniProt Q13489); test: Induction of […] degradation in human MCF7 cells transfected with CRBN siRNA at 0.01 to 1 uM measured after 18 hrs by western blot analysis; type: cell-based; settings: dose 0.01-1 µM
MCF7 [28] = test: Inhibition of TNFalpha-induced E-cadherin protein expression in human MCF7 cells by western blot analysis; type: functional, cell-based
MCF7 [29] = test: Inhibition of TNFalpha-induced vimentin protein expression in human MCF7 cells by western blot analysis; type: functional, cell-based
MCF7 [30] = test: Induction of apoptosis in human MCF7 cells assessed as increase in caspase 3/7 activity at 0.01 to 1 uM measured after 18 hrs by Caspase-Glo reagent based luminescence analysis; type: functional, cell-based; settings: dose 0.01-1 µM
MCF7 [31] = test: Cytotoxicity against human MCF7 cells assessed as reduction in cell viability at 1 uM measured after 24 hrs in presence of TNF-alpha by CellTiter-Glo luminescent assay; type: functional, cell-based

Baculoviral IAP repeat-containing protein 2 (Homo sapiens), sequence (Q13490 whole entry): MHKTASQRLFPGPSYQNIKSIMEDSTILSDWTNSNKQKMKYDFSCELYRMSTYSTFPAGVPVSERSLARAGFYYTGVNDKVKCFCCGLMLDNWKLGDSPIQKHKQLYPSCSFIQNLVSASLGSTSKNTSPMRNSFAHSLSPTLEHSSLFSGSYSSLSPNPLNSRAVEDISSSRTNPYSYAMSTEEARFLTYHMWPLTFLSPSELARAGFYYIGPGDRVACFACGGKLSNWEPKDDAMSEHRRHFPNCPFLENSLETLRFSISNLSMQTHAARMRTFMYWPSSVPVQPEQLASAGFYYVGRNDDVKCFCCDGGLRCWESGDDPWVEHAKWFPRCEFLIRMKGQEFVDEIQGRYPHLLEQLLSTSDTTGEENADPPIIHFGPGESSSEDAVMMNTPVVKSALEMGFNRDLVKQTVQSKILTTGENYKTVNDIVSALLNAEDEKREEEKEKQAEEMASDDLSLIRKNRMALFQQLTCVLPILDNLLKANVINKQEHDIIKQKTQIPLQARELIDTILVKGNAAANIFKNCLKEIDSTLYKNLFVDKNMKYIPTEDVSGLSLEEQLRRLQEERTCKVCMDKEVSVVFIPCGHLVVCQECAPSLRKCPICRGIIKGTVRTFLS
T1 sequence (P98170 whole entry, looked up): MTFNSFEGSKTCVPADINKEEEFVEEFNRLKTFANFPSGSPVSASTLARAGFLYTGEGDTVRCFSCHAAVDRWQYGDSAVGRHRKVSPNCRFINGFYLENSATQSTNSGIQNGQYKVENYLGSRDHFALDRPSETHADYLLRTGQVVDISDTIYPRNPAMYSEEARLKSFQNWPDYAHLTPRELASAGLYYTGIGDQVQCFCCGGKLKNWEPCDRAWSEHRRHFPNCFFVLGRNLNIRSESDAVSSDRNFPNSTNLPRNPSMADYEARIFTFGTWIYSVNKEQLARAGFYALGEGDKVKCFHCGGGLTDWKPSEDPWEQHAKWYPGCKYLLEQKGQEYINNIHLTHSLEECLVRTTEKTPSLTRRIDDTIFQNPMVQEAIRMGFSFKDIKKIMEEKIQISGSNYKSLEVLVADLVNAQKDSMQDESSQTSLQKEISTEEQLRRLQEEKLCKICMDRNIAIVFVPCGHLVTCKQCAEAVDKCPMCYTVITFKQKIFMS
T1 sequence (Q96SW2 whole entry, looked up): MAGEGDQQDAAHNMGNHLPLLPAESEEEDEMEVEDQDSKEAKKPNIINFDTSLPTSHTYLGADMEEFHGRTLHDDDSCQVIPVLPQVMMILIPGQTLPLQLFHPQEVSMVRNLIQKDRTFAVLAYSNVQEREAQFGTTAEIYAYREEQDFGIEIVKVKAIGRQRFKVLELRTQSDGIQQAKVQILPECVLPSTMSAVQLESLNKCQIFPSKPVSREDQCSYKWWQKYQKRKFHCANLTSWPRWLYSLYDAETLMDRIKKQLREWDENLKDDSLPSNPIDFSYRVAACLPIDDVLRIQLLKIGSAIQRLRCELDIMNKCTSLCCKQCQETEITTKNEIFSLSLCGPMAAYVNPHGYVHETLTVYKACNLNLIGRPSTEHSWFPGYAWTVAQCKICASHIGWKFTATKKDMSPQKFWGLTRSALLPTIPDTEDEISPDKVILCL
T2 sequence (Q13489 whole entry, looked up): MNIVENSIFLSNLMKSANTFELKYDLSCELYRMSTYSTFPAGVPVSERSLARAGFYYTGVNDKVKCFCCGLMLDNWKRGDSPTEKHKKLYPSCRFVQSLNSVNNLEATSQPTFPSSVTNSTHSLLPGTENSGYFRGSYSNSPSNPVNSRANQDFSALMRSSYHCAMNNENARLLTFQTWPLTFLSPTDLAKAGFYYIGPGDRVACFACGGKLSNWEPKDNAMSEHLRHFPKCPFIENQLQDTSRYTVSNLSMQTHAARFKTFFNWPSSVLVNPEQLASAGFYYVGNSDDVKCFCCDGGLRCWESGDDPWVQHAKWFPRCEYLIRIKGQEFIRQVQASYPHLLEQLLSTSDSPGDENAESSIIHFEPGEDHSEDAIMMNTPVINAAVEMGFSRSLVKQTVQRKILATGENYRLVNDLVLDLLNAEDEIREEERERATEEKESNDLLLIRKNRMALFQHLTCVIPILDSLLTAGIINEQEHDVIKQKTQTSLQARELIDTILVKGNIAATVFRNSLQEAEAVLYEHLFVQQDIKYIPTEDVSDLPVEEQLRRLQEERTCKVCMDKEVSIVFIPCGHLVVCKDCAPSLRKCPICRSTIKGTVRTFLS
T2 sequence (Q96SW2 whole entry, looked up): as the sequence (Q96SW2 whole entry, looked up) above
T3 sequence (P98170 whole entry, looked up): as the sequence (P98170 whole entry, looked up) above
T3 sequence (Q13489 whole entry, looked up): as the sequence (Q13489 whole entry, looked up) above
T3 sequence (Q13490 whole entry, looked up): as the sequence (Q13490 whole entry) above
T3 sequence (Q96SW2 whole entry, looked up): as the sequence (Q96SW2 whole entry, looked up) above
Protein cereblon/Baculoviral IAP repeat-containing protein 2 (Homo sapiens), sequence (Q13490 whole entry, looked up): as the sequence (Q13490 whole entry) above
Protein cereblon/Baculoviral IAP repeat-containing protein 2 (Homo sapiens), sequence (Q96SW2 whole entry, looked up): as the sequence (Q96SW2 whole entry, looked up) above
E3 ubiquitin-protein ligase XIAP (Homo sapiens), sequence (P98170 whole entry): as the sequence (P98170 whole entry, looked up) above
Baculoviral IAP repeat-containing protein 3 (Homo sapiens), sequence (Q13489 whole entry): as the sequence (Q13489 whole entry, looked up) above

Question: With `CN[C@@H](C)C(=O)N[C@H](C(=O)N1Cc2cc(OCCCCCCCCNC(=O)C3CN(c4ccc5c(c4)C(=O)N(C4CCC(=O)NC4=O)C5=O)C3)ccc2C[C@H]1C(=O)N[C@@H]1CCCc2ccccc21)C(C)(C)C` (stereo partly drawn) as the compound, how does the Activity [1] read?
Answer: The Activity was 99%.

Question: What about the Activity [2] of the same compound?
Answer: Its Activity is 90%.

Question: What about the Activity [3] of the same compound?
Answer: Its Activity is “inactive”.

Question: And the inhibition (MDA-MB-157 [4])?
Answer: Its inhibition is “Active”.

Question: What about the Activity [5] of the same compound?
Answer: The Activity was “Active”.

Question: And the inhibition (MDA-MB-157 [6])?
Answer: Its inhibition is “Active”.

Question: What about the inhibition (MCF7 [7]) of the same compound?
Answer: Its inhibition is “Active”.

Question: What about the inhibition (MDA-MB-231) of the same compound?
Answer: Its inhibition is “Active”.

Question: And the Activity [8]?
Answer: The Activity was “Active”.

Question: What about the Activity [9] of the same compound?
Answer: Its Activity is “Active”.

Question: And the Activity [10]?
Answer: The Activity was “Active”.

Question: And the Activity [11]?
Answer: The Activity was “inactive”.

Question: And the Activity [12]?
Answer: The Activity was “Active”.

Question: And the Activity [13]?
Answer: Its Activity is greater than 90%.

Question: And the inhibition (MCF7 [14])?
Answer: Its inhibition is “Active”.

Question: And the Activity (MCF7 [15])?
Answer: Its Activity is “Active”.

Question: What about the Activity [16] of the same compound?
Answer: The Activity was “inactive”.

Question: What about the GI50 (MCF7 [17]) of the same compound?
Answer: The GI50 was 396 nM.

Question: And the Activity [18]?
Answer: The Activity was “Active”.

Question: What about the inhibition (MCF7 [19]) of the same compound?
Answer: The inhibition was “Active”.

Question: And the Activity (SK-OV-3)?
Answer: The Activity was “Active”.

Question: What about the fold change (FC) [20] of the same compound?
Answer: Its fold change (FC) is greater than 2.

Question: What about the Activity (MCF7 [21]) of the same compound?
Answer: Its Activity is “Active”.

Question: And the Activity [22]?
Answer: Its Activity is greater than 90%.

Question: And the inhibition (MCF7 [23])?
Answer: The inhibition was “Active”.

Question: And the Activity [24]?
Answer: Its Activity is “Active”.

Question: And the fold change (FC) [25]?
Answer: Its fold change (FC) is greater than 2.

Question: What about the Activity (MCF7 [26]) of the same compound?
Answer: Its Activity is 46%.

Question: What about the Activity [27] of the same compound?
Answer: The Activity was “inactive”.

Question: What about the inhibition (MCF7 [28]) of the same compound?
Answer: Its inhibition is “Active”.

Question: What about the inhibition (MCF7 [29]) of the same compound?
Answer: Its inhibition is “Active”.

Question: What about the Activity (MCF7 [30]) of the same compound?
Answer: The Activity was “Active”.

Question: What about the Activity (MCF7 [31]) of the same compound?
Answer: The Activity was “Active”.
